Where only a bound is given, the exact number is not on record here.

As usually defined, the IC50 is the concentration that inhibits the measured activity by half. For orientation: inhibition means how much of the control response was suppressed. Read a low inhibition as a weak effect.

The subject of one test is HCT-116 colon carcinoma. The test can be described thus: Cell Proliferation Inhibition Assay, HCT-116 (14C-thymidine). Format: cell-based. Particulars: Homo sapiens, HCT-116 cell proliferation. An excerpt: (§1) Cell Proliferation Inhibition Assay
(§2) The ability of a test compound to inhibit unregulated cell proliferation may be determined by measuring incorporation of ^14C-labelled thymidine into newly synthesized DNA within cell lines derived from carcinomas originating from several tissues. Accordingly, the effect of a test compound on proliferation of cells with a variety of phenotypes may be determined.
(§3) Carcinoma cell lines used include the HeLa cervical adenocarcinoma from the American Type Culture Collection (ATCC Cat. #CCL2), A375 malignant melanoma (ATCC Cat. #CRL-1619), HCT-116 colon carcinoma (ATCC Cat. #CCL-247), SKBR3 breast carcinoma (ATCC Cat. #HTB-30) and BT474 breast carcinoma (ATCC Cat. #HTB-20).
(§4) The carcinoma cells were trypsinized and counted. The cells (3000-8000 count) were added to each well of a 96-well CytoStar tissue culture treated scintillating microplate (Amersham #RPNQ0160) in complete medium (100 μL) and the plate was then incubated in complete medium for 24 hrs at 37° C. in an inert atmosphere containing 5% CO2.
(§5) Test compound (1 μL) in 100% DMSO was added to the plate test-wells with DMSO only added to control-wells. The plate was incubated in complete medium for a second 24 hr period at 37° C. in an atmosphere containing 5% CO2.
(§6) An aliquot of a solution of Methyl ^14C-thymidine (56 mC/mmol) (NEN #NEC568 or AMersham #CFA532) and complete medium (20 uL to provide 0.2 μCl/well) was then added to each well and the plate was incubated for a third 24 hr period at 37° C. in an atmosphere containing 5% CO2.
(§7) The plate contents were then discarded, the plate washed twice with PBS (200 μL) and then PBS (200 μL) was added to each well. The plate was sealed and the degree of methyl ^14C-thymidine incorporation was quantified on a Packard Top Count.
(§8) Cell proliferation of the Hela cell line was measured using the ATP-Lite method as described in the ATP Lite Kit (Perkin-Elmer Kit Number 6106941) or the C^14 method as described above. Cell proliferation of the other cell lines was measured using the C^14 method.

Test [1] concerns HeLa cervical adenocarcinoma. The test can be described thus: Cell Proliferation Inhibition Assay, Hela (C14 method). Format: cell-based. Particulars: Homo sapiens, Table 7.
Source text: as §1, §2, §3, §4, §5, §6, §7, §8

For another test, the target named is T1, Lyn kinase (human) (Homo sapiens, UniProt P07948).
T1 construct: purchased Upstate Biotechnology, Lake Placid, N.Y
The test can be described thus: Lyn Kinase Assay. Format: biochemical. Particulars: test concentration of 2 μM. Summed up: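 Radiometric filter-binding assay with recombinant human Lyn, poly(Glu,Tyr) substrate (0.1 mg/mL final), 5 μM ATP plus γ-33P-ATP in MOPS pH 7.5/Mg acetate buffer; 40 min at 30 °C, stopped with phosphoric acid, counted by scintillation. Reported as percent inhibition at 2 μM, with IC50 (μM) where determined.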

A further test has as its target T2, HER-2 (Homo sapiens, UniProt P04626).
T2 construct: His6 with thrombin site (N); purchased Proqinase (Freiburg, Germany)
The test can be described thus: HER-2 Kinase Assay. Format: biochemical. Particulars: value in parentheses. A digest of the protocol:
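Read-out was scintillation counting of 33P incorporated into biotinylated polyGluTyr captured on streptavidin plates. Reactions ran 1 h at 30 °C with GST-fused HER-2 residues 679–1255, 1 μM ATP, Mn2+ and Mg2+ at pH 7.5; data given as percent inhibition at 1 μM, with IC50 where determined.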

T2 sequence (P04626 679-1255): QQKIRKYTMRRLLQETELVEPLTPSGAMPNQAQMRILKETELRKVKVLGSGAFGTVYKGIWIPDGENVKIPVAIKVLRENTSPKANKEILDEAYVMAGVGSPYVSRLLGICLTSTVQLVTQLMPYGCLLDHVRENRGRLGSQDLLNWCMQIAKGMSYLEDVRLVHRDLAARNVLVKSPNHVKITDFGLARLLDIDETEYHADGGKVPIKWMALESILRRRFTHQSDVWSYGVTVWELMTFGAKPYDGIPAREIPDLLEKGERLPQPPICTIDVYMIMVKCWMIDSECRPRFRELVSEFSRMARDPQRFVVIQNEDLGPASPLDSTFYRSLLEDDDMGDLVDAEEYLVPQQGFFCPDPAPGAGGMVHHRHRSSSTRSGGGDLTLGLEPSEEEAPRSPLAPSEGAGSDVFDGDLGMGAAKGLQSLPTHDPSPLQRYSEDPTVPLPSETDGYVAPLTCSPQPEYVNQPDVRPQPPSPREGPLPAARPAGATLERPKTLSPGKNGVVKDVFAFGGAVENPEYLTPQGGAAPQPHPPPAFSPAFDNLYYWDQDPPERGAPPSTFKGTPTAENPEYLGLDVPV
T1 sequence (P07948 whole entry): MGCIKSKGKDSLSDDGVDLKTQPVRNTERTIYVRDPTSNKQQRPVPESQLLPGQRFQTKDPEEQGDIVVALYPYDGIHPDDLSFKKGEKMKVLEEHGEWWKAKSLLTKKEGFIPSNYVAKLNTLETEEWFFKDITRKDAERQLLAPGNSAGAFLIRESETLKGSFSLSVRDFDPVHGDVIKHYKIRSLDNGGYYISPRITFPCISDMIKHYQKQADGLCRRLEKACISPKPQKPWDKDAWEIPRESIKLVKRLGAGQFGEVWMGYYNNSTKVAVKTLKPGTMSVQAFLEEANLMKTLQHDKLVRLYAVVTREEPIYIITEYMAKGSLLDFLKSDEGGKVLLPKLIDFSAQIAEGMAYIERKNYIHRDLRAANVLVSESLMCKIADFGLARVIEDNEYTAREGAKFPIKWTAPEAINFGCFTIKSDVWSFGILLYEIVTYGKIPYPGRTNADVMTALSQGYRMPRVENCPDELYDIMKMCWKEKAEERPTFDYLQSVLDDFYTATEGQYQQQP

Regarding `Cc1ccc(N2C(=O)Nc3c(C(=O)Nc4ccc(CN5CCOCC5)cc4)sc4ncnc2c34)cc1Br` [Cpd 108, 5-(3-bromo-4-methyl-phenyl)-4-oxo-4,5-dihydro-3H-1-thia-3,5,6,8-tetraaza-acenaphthylene-2-carboxylic acid (4-morpholin-4-ylmethyl-phenyl)-amide], the half-maximal inhibitory concentration (IC50) with HCT-116 colon carcinoma is 100 µM; in test [1], ≥ 100 µM; on HER-2, 0.148 µM. Testing at 2 µM on Lyn kinase (human) gave an inhibition of 69%.
As to `CC(C)(C)OC(=O)N1CCC(NC(=O)c2sc3ncnc4c3c2NC(=O)N4c2ccc3c(ccn3Cc3cccc(F)c3)c2)CC1` [Cpd 91, 4-({5-[1-(3-fluoro-benzyl)-1H-indol-5-yl]-4-oxo-4,5-dihydro-3H-1-thia-3,5,6,8-tetraaza-acenaphthylene-2-carbonyl}-amino)-piperidine-1-carboxylic acid tert-butyl ester], the IC50 with HCT-116 colon carcinoma was found to be 10 µM; in test [1] it was 1 µM; on HER-2, 2.19 µM. Moreover, on Lyn kinase (human), the inhibition at 2 µM stood at 7%.
`CCOC(=O)c1sc2ncnc3c2c1NC(=O)N3c1ccc(C)c(Br)c1` [Cpd 102, 5-(3-bromo-4-methyl-phenyl)-4-oxo-4,5-dihydro-3H-1-thia-3,5,6,8-tetraaza-acenaphthylene-2-carboxylic acid ethyl ester]: the figures for the IC50 (with HCT-116 colon carcinoma; in test [1]; at HER-2) were 100 µM, ≥ 100 µM and > 100 µM, respectively. At Lyn kinase (human), this molecule registered an inhibition at 2 µM of 8%. In addition, the “% Inhibition (Lyn)” value at Lyn kinase (human) (2 µM) was determined as 13%.
Take `CN1CCC(NC(=O)c2sc3ncnc4c3c2NC(=O)N4c2ccc(Oc3ccc(F)cc3)cc2)CC1` [Cpd 118, 5-[4-(4-fluoro-phenoxy)-phenyl]-4-oxo-4,5-dihydro-3H-1-thia-3,5,6,8-tetraaza-acenaphthylene-2-carboxylic acid (1-methyl-piperidin-4-yl)-amide]: the IC50 is 10 µM in the test on HCT-116 colon carcinoma, ≥ 10 µM in test [1] and ~100 µM on HER-2. For the same molecule, the inhibition at 2 µM against Lyn kinase (human) was 12%.
On to `O=C(NCCCN1CCOCC1)c1sc2ncnc3c2c1NC(=O)N3c1ccc2c(ccn2Cc2cccc(F)c2)c1` [Cpd 95, 5-[1-(3-fluoro-benzyl)-1H-indol-5-yl]-4-oxo-4,5-dihydro-3H-1-thia-3,5,6,8-tetraaza-acenaphthylene-2-carboxylic acid (3-morpholin-4-yl-propyl)-amide], for which the 50% inhibitory concentration (IC50) with HCT-116 colon carcinoma was 10 µM; in test [1] it was ≥ 10 µM; at HER-2 it was 0.35 µM. The molecule also had an inhibition at 2 µM on Lyn kinase (human) of 18%.
For `Cc1ccc(Br)cc1N1C(=O)Nc2c(C(=O)NC3CCN(C)CC3)sc3ncnc1c23` [Cpd 117, 5-(5-bromo-2-methyl-phenyl)-4-oxo-4,5-dihydro-3H-1-thia-3,5,6,8-tetraaza-acenaphthylene-2-carboxylic acid (1-methyl-piperidin-4-yl)-amide], in that order: 100 µM, ≥ 100 µM, 13 µM and 12%.

The values above are taken from patent publication US7579356B2, “Thia-tetraazaacenaphthylene kinase inhibitors” (Janssen Pharmaceutica NV, priority 2005, dated 2009).
